The values that follow come from patent US20250388542A1, “ANALOGUES OF PENTAMIDINE AND USES THEREFOR” (Auransa Inc., priority 2018, published 2025).

One data set is described as follows: Human microsomal CL rate. The conditions noted are these: human microsomes. The class given is in vitro ADME.
Another data set concerns NCI-H209. The experiment in a line: CellTiter-Glo luminescent cell viability assay. The class given is cell-based. The conditions noted are these: Homo sapiens. The protocol: (§1) The objective of this study is to investigate potential cell killing effect of Compounds 1-15 on 3 cancer cell lines. 50% inhibition concentration (IC50) was determined for these compounds in various cancer cell lines using CellTiter-Glo™ luminescent cell viability assay at different compound concentrations. Each cell line (e.g., NCI-H209; NCI-H69; and SW1271) was treated with Compounds 1-15 and culture medium contains 0.2% [v/v] DMSO vehicle control. All the cells were cultured in the media supplemented with 10-20% fetal bovine serum at 37° C., 5% CO2 and 95% humidity.

The test system of a further data set is NCI-H69. The experiment in a line: CellTiter-Glo luminescent cell viability assay. It is filed as cell-based. The conditions noted are these: Homo sapiens. The protocol:
as §1

The next data set relates to SW1271. In words: CellTiter-Glo luminescent cell viability assay. It is filed as cell-based. Here is the method:
as §1

The subject of another data set is HEP3B2.7-1. The experiment in a line: CellTiter-Glo cell viability, liver cell lines, 8 days. It is filed as cell-based. The conditions noted are these: HEP3B2.7-1, Table 5, similar experiment. Here is the method: (§2) The objective of this study is to investigate the effect of Compound 1 on cell viability of various types of liver cancer. Ten (10) different liver cancer cell lines were employed in the study. Each liver cell line shown in Table 4 was treated with Compound 1, pentamidine, as reference control, a standard of care (cisplatin) and culture medium contains 0.2% [v/v] DMSO vehicle control and IC50 values were obtained as described above. The raw data values from the CellTiter-Glo™ cell viability assay expressed in relative luminescence units were normalized to the vehicle for each individual plate, and any reduction in luminescence indicated a decrease in viability (%). The data was analyzed in GraphPad PRISM using a non-linear sigmoidal plot with variable slope (asymmetric four-point linear regression), and an IC50 value for each compound was generated. The experiment tested pentamidine, compound 1, and standard-of-care control Cisplatin in full growth media for 8 days. Cells were initially treated with the test compounds on Day 0, and the cells were then replenished with fresh compound dilutions on Day 3. Pentamidine, Compound 1, and cisplatin were tested at 9 concentration points; 100, 33.33, 11.11, 3.70, 1.23, 0.41, 0.14, 0.05, and 0.02 μM (final DMSO concentration=0.5%). In particular, the IC50 values of pentamidine and Compound 1 were 0.8 and 0.6 μM in Hep3B-luc, respectively.

For a further data set, the system named is SK-HEP-1. Described as above. The conditions noted are these: Homo sapiens, SK-HEP1, SK-HEP-1, Table 5, similar experiment. It is filed as cell-based. Here is the method:
as §2

Data set [1] can be described thus: Pharmacokinetics in liver and tissues after oral administration. The class given is in vivo, mice. The conditions noted are these: p.o. Here is the method: Compound 1 (20 mg per kg), Compound 5 (10 mg per kg), and pentamidine (20 mg per kg) were tested for their PK. Tissue samples were collected as described above in Example 23. Briefly, blood samples (approximately […]) were collected under light isoflurane anesthesia from retro orbital plexus of mice at 0.5, 1, 3, 8, 48 and 72 hr. Plasma samples were separated by centrifugation at 2,000×g for 6 minutes and stored below −70±10° C. until bioanalysis. Immediately after collection of blood, animals were euthanized using excess CO2 asphyxiation and samples were collected from set of five mice at each time point. Collected tissue samples were immediately dipped and rinsed three times in ice cold PBS (for 5-10 seconds/rinse using ˜5-10 mL fresh PBS in disposable petri dish for each rinse) and dried on blotting paper. Tissue samples were homogenized using ice-cold phosphate buffer saline (pH7.4) and homogenates were stored below −70±10° C. until analysis. Total homogenate volume was three times the tissue weight except for liver samples, total homogenate volume was ten times the liver weight. Bioanalysis process was determined by fit-for-purpose LC-MS/MS method.
Calibration standards were prepared by spiking the test compound into blank plasma. 10 μL of working calibration standard was spiked into 190 μL of blank Mice Plasma or tissue homogenate to generate linearly spiked calibration standards. Calibrator concentrations were 5,000, 2,000, 1,000, 200, 100, 20, 10, 2 and 1 ng/mL. Calibration standard samples were processed along with the test samples. Twenty-five μL aliquots of plasma or tissue homogenate test samples were treated with 100 μL of acetonitrile containing internal standard (500 ng/mL Glipizide). Samples were vortexed for 5 minutes. Samples were centrifuged for 10 minutes at a speed of 4000 rpm at 4° C. Following centrifugation, 100 μL of clear supernatant was transferred in 96-well plates of and analyzed using LC-MS/MS. Chromatographic separation was achieved using a Kintex Polar column (C18, 100×4.6 mm, 5μ) and column oven temperature 45° C. For compound 1 diHCl the mobile phase A was water with 0.1% formic acid in Acetonitrile; mobile phase B was 10 mM ammonium formate. However, the mobile phase for pentamidine and Compound 5 mobile phase A was water with 0.1% formic acid and mobile phase B acetonitrile with 0.1% formic acid.
The gradient program for Compound 1 was as follows: 5% B (1-2.40 min), 90% B (2.60-3.00 min), and the initial for B was 90%. The retention rate was 1.47 per minute and the internal standard Glipizide was 1 per 9 minutes. The column was maintained at 45° C. For pentamidine and Compound 5, analysis was performed using 233 MassSpec by AB Sciex API5000 with Turbo Ion Spray interface operating in a positive ionization mode. Quantification was performed using multiple reaction monitoring (MRM) method with the transitions of (m/z) 328 à (m/z) 311 for Compound 5 and (m/z) 548 à (m/z) 366 for Edoxaban (internal standard). While, for pentamidine (m/z) 341 à (m/z) 324 and (m/z) 548 à (m/z) 366 for Verapmil (internal standard).
The gradient program for Compound 5 was as follows: 10% B (0-0.2 min), 95% B (1.5-2 min), the initial for B was 10% and it stopped at 2.6 mins. The flow rate was 0.5 mL/min. The gradient program for pentamidine was as follows: 10% B (0-0.2 min), 95% B (1.4-2 min), the initial for B was 10% and it stopped at 2.5 mins. The flow rate was 0.5 mL/min.

The test system of data set [2] is A549-NLR cells with anti-CD3 stimulated PBMC. In words: Primary human T cell killing assay. It is filed as cell-based. The protocol:
In this study, A549-NLR cells were cultured alone or with PBMC's isolated from blood of three healthy donors in the presence of anti-CD3 stimulation. […] A549 growth was quantified by enumerating NucLight+ cells and A549 apoptosis by Caspase-3/7+ expression (colocalised to NucLight signal) every 2 hours for 96 hours.
All test conditions were applied to A549-NLR cells in the presence of stimulated PBMC. The number of A549 cells was tracked by IncuCyte live cell imaging over 96 hrs. The number of A549 cells at each time-point was counted and expressed as a percentage of the starting number (on a per well basis). At each time-point, the frequency of target cell apoptosis was quantified.

Turning to `N=C(N)c1ccc(OCCCCCOc2ccc(C(=N)N)cn2)cc1` [Compound 2, 6-((5-(4-carbamimidoylphenoxy)pentyl)oxy)nicotinimidamide], in the data set “Human microsomal CL rate”, the microsomal CLint came out at 9.8 µL/min/mg. Besides, the IC50 with NCI-H209 amounted to 9.38 µM; in the data set with NCI-H69 it was 3.48 µM; in the data set on SW1271, 1.6 µM.
Regarding `N=C(N)c1ccc(OCCCCCOc2cnc(C(=N)N)nc2)cc1` [Compound 3, 5-((5-(4-carbamimidoylphenoxy)pentyl)oxy)pyrimidine-2-carboximidamide], the concentration for half-maximal inhibition (IC50) was found to be 3.47 µM with NCI-H209, 2.91 µM in the data set with NCI-H69 and 3.47 µM in the data set on SW1271.
As to `N=C(N)c1ccc(OCCCCCOc2cnc(C(=N)N)cn2)cc1` [Compound 4, 5-((5-(4-carbamimidoylphenoxy)pentyl)oxy)pyrazine-2-carboximidamide], the IC50 with HEP3B2.7-1 turned out to be 1.91 µM; in the data set with SK-HEP-1, 5.95 µM.
With `N=C(N)c1ccc(OCCCCOc2ccc(C(=N)N)nc2)cc1` [Compound 5, 5-(4-(4-carbamimidoylphenoxy)butoxy)picolinimidamide], the microsomal CLint in the data set “Human microsomal CL rate” was determined as 3.9 µL/min/mg. Also, the IC50 amounted to 2.78 µM with NCI-H209, 0.876 µM with NCI-H69, 0.207 µM in the data set with HEP3B2.7-1 and 0.73 µM in the data set with SK-HEP-1. Further, the “exposure to the liver vs pentamidine (20 mpk)” value in data set [1] (Compound 1 20 mpk, Compound 5 10 mpk) is recorded as “greater exposure to the liver than pentamidine”. The “half-life relative to Compound 1” value in data set [1] (liver) is listed as “approximately 3 fold”. The half-life vs pentamidine result in data set [1] (liver) is “higher half-life than pentamidine”. Moreover, the tissue exposure result in data set [1] (liver, small intestine, ileum) is “increased exposure in the liver as well as small intestine and ileum”. Further, in data set [1] (plasma vs other tissues), the “exposure to the plasma” value is on record as “low in comparison to other tissues”.
In the case of `N=C(N)c1cnc(OCCCCCOc2cnc(C(=N)N)cn2)cn1` [Compound 7, 5,5′-(pentane-1,5-diylbis(oxy))bis(pyrazine-2-carboximidamide)], in the data set with NCI-H69, inhibition was half-maximal at 0.804 µM (IC50). Further, the “immune cell-mediated A549 cell apoptosis (Caspase-3/7+)” value in data set [2] (0.3, 1 and 3 μM, three donors, 96 hours) is given as “enhancement of immune cell-mediated A549 cell apoptosis in 2 of 3 donors in a dose dependent manner”. Moreover, in data set [2] (highest concentration tested (3 μM)), the “effect compared with positive control (IL-2)” value is “comparable effect to the positive control (IL-2)”.
Consider `N=C(N)c1cccc(CCCCCCCc2cccc(C(=N)N)n2)n1` [Compound 8, 6,6′-(heptane-1,7-diyl)dipicolinimidamide], for which the microsomal CLint in the data set “Human microsomal CL rate” worked out at 11 µL/min/mg. For the same compound, in the data set with NCI-H69, the IC50 was 0.687 µM.
Take `N=C(N)c1cncc(CCCCCCCc2cncc(C(=N)N)c2)c1` [Compound 9, 5,5′-(heptane-1,7-diyl)dinicotinimidamide]: the intrinsic metabolic clearance (microsomal CLint) in “Human microsomal CL rate” is 13 µL/min/mg. This compound registered an IC50 in the data set with NCI-H69 of 5.28 µM.
`N=C(N)c1ccc(CCCCCCCc2ccc(C(=N)N)cn2)nc1` [Compound 10, 6,6′-(heptane-1,7-diyl)dinicotinimidamide] registered a half-inhibitory concentration (IC50) in the data set with NCI-H69 of 22.2 µM. In other words, the double-digit micromolar range.
In turn, `N=C(N)c1cccc(OCCCCCOc2ccc(C(=N)N)nc2)c1` [Compound 11, 5-(5-(3-carbamimidoylphenoxy)pentyloxy)picolinimidamide] showed a microsomal CLint in the data set “Human microsomal CL rate” of 5.2 µL/min/mg. The concentration for half-maximal inhibition (IC50) in the data set on NCI-H69 turned out to be 0.62 µM.
Compound `N=C(N)c1ccc(OCCCCCOc2ccnc(C(=N)N)c2)cn1` [Compound 12, 4-((5-((6-carbamimidoylpyridin-3-yl)oxy)pentyl)oxy)picolinimidamide] showed an intrinsic clearance (microsomal CLint) in the data set “Human microsomal CL rate” of 7.5 µL/min/mg. Also, the IC50 in the data set with NCI-H69 was found to be 1.58 µM.
Consider `N=C(N)c1ccc(O[C@H]2CC[C@H](Oc3ccc(C(=N)N)nc3)CC2)cc1` [Compound 13, 5-(((1r,4r)-4-(4-carbamimidoylphenoxy)cyclohexyl)oxy)picolinimidamide], for which the microsomal CLint in the data set “Human microsomal CL rate” amounted to 11 µL/min/mg. In the data set with NCI-H69, this compound registered an IC50 of 2.11 µM.
As for `N=C(N)c1ccc(O[C@H]2CC[C@@H](Oc3ccc(C(=N)N)nc3)CC2)cc1` [Compound 14, 5-(((1s,4s)-4-(4-carbamimidoylphenoxy)cyclohexyl)oxy)picolinimidamide], the intrinsic clearance (microsomal CLint) in the data set “Human microsomal CL rate” is 15.3 µL/min/mg. This compound showed a concentration for half-maximal inhibition (IC50) with NCI-H69 of 1.1 µM.
In turn, `N=C(N)c1cccc(OCCCCCOc2ccnc(C(=N)N)c2)c1` [Compound 15, 4-(5-(3-carbamimidoylphenoxy)pentyloxy)picolinimidamide] came in with a microsomal CLint in the data set “Human microsomal CL rate” of 3.2 µL/min/mg. Besides, the half-maximal inhibitory concentration (IC50) in the data set on NCI-H69 was 0.49 µM.
`N=C(N)c1ccc(OCCCCOc2ccc(C(=N)N)nc2)cn1` [Compound 16, 5,5′-(butane-1,4-diylbis(oxy))dipicolinimidamide]: the microsomal CLint in the data set “Human microsomal CL rate” was 4.6 µL/min/mg.
Compound `N=C(N)c1ccc(OCCCOc2ccc(C(=N)N)nc2)cc1` [Compound 17, 5-(3-(4-carbamimidoylphenoxy)propoxy)picolinimidamide] had an intrinsic clearance (microsomal CLint) in “Human microsomal CL rate” of 8.1 µL/min/mg.
`N=C(N)c1ccc(CC[C@@H]2CCC[C@H](CCc3ccc(C(=N)N)nc3)C2)cc1` [Compound 18, 5-{2-[(1R,3S)-3-[2-(4-carbamimidoylphenyl)ethyl]cyclohexyl]ethyl}pyridine-2-carboximidamide] showed a microsomal CLint in “Human microsomal CL rate” of 9.5 µL/min/mg.
In the case of `N=C(N)c1ccc(OCCCCCOc2ccnc(C(=N)N)c2)cc1` [Compound 19, 4-{[5-(4-carbamimidoylphenoxy)pentyl]oxy}pyridine-2-carboximidamide], the intrinsic clearance (microsomal CLint) in “Human microsomal CL rate” was determined as 27.7 µL/min/mg. The IC50 was 0.222 µM with HEP3B2.7-1 and 0.84 µM with SK-HEP-1.
`N=C(N)c1ccc(OCCCCCOc2ccc(C(=N)N)nc2)cn1` [Compound 20, 5-({5-[(6-carbamimidoylpyridin-3-yl)oxy]pentyl}oxy)pyridine-2-carboximidamide] displayed an intrinsic clearance (microsomal CLint) in “Human microsomal CL rate” of 4 µL/min/mg.
On the same count and under the same terms, then `N=C(N)c1cc(OCCCCCOc2ccnc(C(=N)N)c2)ccn1` [Compound 21], with 5.1 µL/min/mg.
